From patent EP3381906A1, “COMPOUNDS FOR USE AS HEPARANASE INHIBITORS” (Leadiant Biosciences SA, priority 2017, dated 2018)

What was measured:
U87MG [1] = test: Cell adhesion assay on matrigel coated wells; type: cell-based, human; conditions: percent of adhesion with respect to the control (100%)
U87MG [2] = test: Matrigel cell invasion assay; type: cell-based, human; parameters: key to Invasion Assay Inhibition (%) U87MG: +++: > 90%; ++: 50-90 %; +: < 50%; -: Not active; conditions: for inhibition at 2.5 µM: Homo sapiens, U-87 MG, Conc. 2.5 µM
[3] = system: HT1080 (human fibrosarcoma); test: Cell adhesion assay on matrigel coated wells; type: cell-based; conditions: percent of adhesion with respect to the control (100%)
Method: Cell surface, non-integrin molecules such as heparan sulfate proteoglycans (HSPGs) may be involved in the regulation of early adhesive stages of cell-ECM interactions. A cell adhesion assay has been employed to determine if the newly designed heparanase inhibitors were able to interfere with adhesion properties of cancer cells.
HT1080 (human fibrosarcoma) cells were treated for 18-20 h with test compounds in complete medium supplemented with 10% FCS. Then cells were collected, washed in complete medium, and added to matrigel coated wells in triplicate, at previously identified optimal seeding density, and incubated at 37 °C in complete medium for times ranging from 15 minutes to 4h, according to the cell line. After incubation, the wells were washed three times with serum-free medium and the remaining firmly attached cells were stained with crystal-violet 0.1%. Optical density was measured at 560 nm by Victor 3 (Perkin-Elmer) plate analyzer. Each experiment was repeated three times.

[4] = system: U2OS (human osteosarcoma); test: SRB Cell Cytotoxicity Assay; type: cell-based; conditions: treated for 72h, read-out: Concentration of test compounds at which the cell growth is inhibited by 50 % U2OS
Source text: (§1) SRB Cell Cytotoxicity Assay is an assay based upon the quantitative staining of cellular proteins by sulforhodamine B (SRB). This assay can be used for high-throughput drug screening (Vichai & Kirkitara, Nature Protocol. 2006, 1, 112). Sulforhodamine B is an anionic aminoxanthene dye that forms an electrostatic complex with the basic amino acid residues of proteins under moderately acid conditions, which provides a sensitive linear response.
(§2) To assess a putative antiproliferative activity of the selected compounds, HT1080 (human fibrosarcoma), U87MG (human glioblastoma astrocytoma) and U2OS (human osteosarcoma) cell lines were treated for 72h, in triplicate, with increasing concentrations of heparanase inhibitors. Inhibition of cell proliferation was then measured by the classical colorimetric SRB Cell Cytotoxicity assay. Absorbance was measured by spectrophotometer at a wavelength of 510 nm and cell proliferation was determined as percent with respect to control cells (cells treated with the vehicle alone). EC50 values were then determined by GraphPad Prism.

[5] = system: U87MG (human glioblastoma astrocytoma); test: SRB Cell Cytotoxicity Assay; type: cell-based; conditions: U-87 MG, treated for 72h, read-out: Concentration of test compounds at which the cell growth is inhibited by 50 % U87MG
Source text: as §1, §2

[6] = system: HT1080 (human fibrosarcoma); test: SRB Cell Cytotoxicity Assay; type: cell-based; conditions: HT-1080, HT1080, treated for 72h, read-out: Concentration of test compounds at which the cell growth is inhibited by 50 % HT1080
Source text: as §1, §2

[7] = system: HT1080 (human fibrosarcoma); test: Matrigel cell invasion assay; type: cell-based; conditions: for inhibition at 2.5 µM: HT-1080, HT1080, Conc. 2.5 µM
Method: Heparanase inhibitors were then evaluated for their activity on the invasive potential of HT1080 (human fibrosarcoma) human cell lines, using the Matrigel cell invasion assay which allows to assess the cell invasion ability of malignant and normal cells.
Invasion assay was performed using BioCoat cell culture inserts (BioCoat 8.0µm PET Membrane 24 Well Permeable Supports, Corning). Filters were coated with 100 µl of 300 µg/ml Matrigel dissolved in coating buffer (0.01M Tris pH 8.0, 0.7% NaCl) (Becton-Dickinson Sciences). DMEM (Dulbecco's Modified Eagle's Medium) containing 5% FBS was added to the lower chambers. Cells were pre-treated with heparanase inhibitors for 24 h, detached and added to the upper chambers in media containing the inhibitors. Cells were allowed to invade for 24 h at 37°C in a CO2 incubator and then unmigrated cells were removed from the upper chamber with a cotton swab. The invading cells were fixed, stained with 0.1% crystal violet for 10 min at room temperature, photographed and counted under inverted microscope.
Test compounds were analyzed at fixed concentration for several fields, in duplicates. Activity of test compounds was compared to the reference compound. Activity of most interesting compound was confirmed in a second cell invasion assay. Data were expressed as the percent invasion with respect to cell migration through uncoated insert membrane. (Table 5)

U2OS = test: Matrigel cell invasion assay; type: cell-based, human; parameters: key to Invasion Assay Inhibition (%) U2OS: +++: > 90%; ++: 50-90 %; +: < 50%; -: Not active; conditions: for inhibition at 2.5 µM: Homo sapiens, Conc. 2.5 µM
[8] = system: genes encoding for proangiogenic factors, such as FGF1/2, VEGF, MMP-9, HSPE-1; test: Real-Time Quantitative PCR in HT1080 cells; type: cell-based, human; conditions: compared with SST0001 tested at 10 µM
Method: (§3) To evaluate the effect of heparanase inhibitors on the tumor transcription of genes encoding for proangiogenic factors, such as FGF1/2, VEGF, MMP-9, HSPE-1, the relative mRNA levels were analyzed by quantitative Real-Time Quantitative PCR. To perform the assay, HT1080 (human fibrosarcoma) cells were cultured in complete medium containing 10%FCS (fetal calf serum). Cells were plated in 24-well plates and treated at fixed concentration (i.e., highest non-toxic concentration) of test compounds. After 24 h, cells were detached, collected and total RNA extracted by RNeasy Mini Kit (QIAGEN). Following reverse transcription step, FGF1/2, VEGF, MMP-9, HSPE-1 mRNA levels, were quantified by qPCR using the advanced Universal SYBR Green Supermix (Bio Rad) and ABI PRISM 7900HT Thermal Cycler System (Perkin Elmer), according to the manufacturer's instructions. Appropriate no-RT and non-template controls were included in each 96-well PCR reaction, and dissociation analysis was performed at the end of each run to confirm the specificity of the reaction. Relative levels of RNA were calculated using the ddCt method. Standard curve and sample data were run in duplicate. In the Table a mean value is reported.

VEGF = test: Real-Time Quantitative PCR of pro-angiogenic genes in HT1080 cells; type: cell-based, human; conditions: 24 h, Conc 2.5 uM
Method: as §3

FGF-1 = test: as above; type: cell-based, human; conditions: 24 h, Conc 2.5 uM
Method: as §3

FGF-2 = test: as above; type: cell-based, human; conditions: 24 h, Conc 2.5 uM
Method: as §3

MMP-9 = test: as above; type: cell-based, human; conditions: 24 h, Conc 2.5 uM
Method: as §3

heparanase = biological target: T1, heparanase (Homo sapiens, UniProt Q9Y251); test: AGA*IA assay: heparanase-catalyzed fondaparinux cleavage, colorimetric (WST-1); type: biochemical; conditions: 2.5 nM heparanase, 100 µM fondaparinux, pH 5.0, 3 h at 37°C; class symbols; read-out: AGAIA assay (IC50)
T1 construct: 100 µM fondaparinux, 2.5 nM heparanase and serial dilutions of test compounds
T1 sequence (Q9Y251 158-543 limits assumed): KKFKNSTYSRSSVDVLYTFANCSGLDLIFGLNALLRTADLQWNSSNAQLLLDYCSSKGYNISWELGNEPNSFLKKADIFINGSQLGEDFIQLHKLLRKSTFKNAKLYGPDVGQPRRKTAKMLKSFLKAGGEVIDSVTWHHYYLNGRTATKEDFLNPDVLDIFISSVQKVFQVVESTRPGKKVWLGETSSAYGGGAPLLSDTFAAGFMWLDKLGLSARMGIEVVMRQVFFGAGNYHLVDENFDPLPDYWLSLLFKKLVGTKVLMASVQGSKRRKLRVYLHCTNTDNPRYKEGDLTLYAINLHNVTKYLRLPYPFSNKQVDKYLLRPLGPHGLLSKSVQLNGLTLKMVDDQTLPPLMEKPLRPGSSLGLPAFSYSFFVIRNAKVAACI
T1 sequence (Q9Y251 36-109 limits assumed): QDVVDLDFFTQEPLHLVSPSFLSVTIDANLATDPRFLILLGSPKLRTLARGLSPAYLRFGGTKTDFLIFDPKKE
Method: All compounds were tested in a simple, accurate and robust microplate assay based on the cleavage of the synthetic heparin fragment, the pentasaccharide Fondaparinux (AGA*IA). This assay was originally developed by Hammond and coworkers [Hammond E, Li CP, Ferro V. Development of a colorimetric assay for heparanase activity suitable for kinetic analysis and inhibitor screening. […] Fondaparinux is cleaved by heparanase to generate a reducing disaccharide, which can be quantitatively measured via a colorimetric or a fluorescence assay, the last by the fluorescent sensor polymer-H [Schiemann S, Lühn S, Alban S. Development of both colorimetric and fluorescence heparinase activity assays using fondaparinux as substrate.
The assay measures the appearance of the disaccharide product of heparanase-catalyzed fondaparinux cleavage colorimetrically using the tetrazolium salt WST-1. Assay was essentially performed as described with minor modifications. Briefly, NUNC ELISA 96-well plates were pre-treated with a solution of 4% BSA (bovin serum albumin) in phosphate-buffered saline containing 0.05% Tween 20 (PBST), for 2 h at 37°C, then washed three times with PBST, dried by tapping on paper towel and stored at -20°C. Before use, once again, the plates were washed with PBST.
Then, the absorbance at 560 nm was measured through a microplate reader (Victor 3, Perkin Elmer).
Finally, the measurements were corrected by subtracting both the reagent background and the inner absorbance value of test compound.

| SMILES | Adhesion Assay (%) U87MG (U87MG [1]; Conc. 10 µM) | Invasion Assay Inhibition (%) U87MG (U87MG [2]; Conc. 10 µM) | Adhesion Assay (%) HT1080 ([3]; HT1080, Conc. 10 µM) | EC50 [4] | EC50 [5] | EC50 [6] | inhibition at 10 µM ([7]; HT-1080, HT1080, Conc. 10 µM) | Invasion Assay Inhibition (%) U2OS (U2OS; Conc. 10 µM) | Adhesion Assay (%) U87MG (U87MG [1]; Conc. 2.5 µM) | inhibition at 2.5 µM (U87MG [2]) | Adhesion Assay (%) HT1080 ([3]; HT1080, Conc. 2.5 µM) | potency in silencing gene expression [8] | inhibition at 2.5 µM [7] | inhibition at 2.5 µM (U2OS) | Gene Expression (% mRNA vs. control) VEGF (VEGF) | Gene Expression (% mRNA vs. control) FGF-1 (FGF-1) | Gene Expression (% mRNA vs. control) FGF-2 (FGF-2) | Gene Expression (% mRNA vs. control) MMP-9 (MMP-9) | IC50 (heparanase) |
| --- | --- | --- | --- | --- | --- | --- | --- | --- | --- | --- | --- | --- | --- | --- | --- | --- | --- | --- | --- |
| Cc1ccc(C(=O)Nc2ccc(S(=O)(=O)O)c3cc(S(=O)(=O)O)cc(S(=O)(=O)O)c23)cc1NC(=O)c1cccc(NC(=O)Nc2cccc(C(=O)Nc3cc(C(=O)Nc4ccc(S(=O)(=O)O)c5cc(S(=O)(=O)O)cc(S(=O)(=O)O)c45)ccc3C)c2)c1 [Suramin, reference compound] | ∼ 73% | - | ∼ 100% | > 10000 nM | > 10000 nM | > 10000 nM | < 50% | - |  |  |  |  |  |  |  |  |  |  |  |
| O=C(Nc1ccc(-c2nc3ccccc3[nH]2)cc1)c1ccc(C(=O)Nc2ccc(-c3nc4ccccc4[nH]3)cc2)cc1 [SST0856, 1,4-Benzenedicarboxamide, N1,N4-bis[4-(1H-benzimidazol-2-yl)phenyl]-] |  |  |  |  |  |  |  |  | ∼ 99% | < 50% | ∼ 98% | in the same range of reference compound SST0001 | < 50% | 50 to 90% | ∼ 54% | ∼ 53% | ∼ 76% | ∼ 55% |  |
| O=C(Nc1cccc(-c2nc3ccccc3[nH]2)c1)c1ccc(Oc2ccc(C(=O)Nc3cccc(-c4nc5ccccc5[nH]4)c3)cc2)cc1 [SST0656, N-[3-(1H-benzimidazol-2-yl)phenyl]-4-[4-[[3-(1H-benzimidazol-2-yl)phenyl]carbamoyl]phenoxy]benzamide] |  |  |  | > 2500 nM | > 2500 nM | > 2500 nM |  |  | ∼ 97% | < 50% | ∼ 87% |  | < 50% | < 50% |  |  |  |  | 50 to 490 nM |
| O=C(O)c1ccc2c(c1)C(=O)N(c1ccc(NC(=O)c3cccc(C(=O)Nc4ccc(N5C(=O)c6ccc(C(=O)O)cc6C5=O)cc4Cl)c3)c(Cl)c1)C2=O [SST0859, 2-[4-[[3-[[4-(5-carboxy-1,3-dioxoisoindol-2-yl)-2-chlorophenyl]carbamoyl]benzoyl]amino]-3-chlorophenyl]-1,3-dioxoisoindole-5-carboxylic acid] |  |  |  |  |  |  |  |  | ∼ 100% | < 50% | ∼ 95% | in the same range of reference compound SST0001 | < 50% | 50 to 90% | ∼ 61% | ∼ 67% | ∼ 73% | ∼ 40% |  |
